Laboratory results taken from patent US20210038591A1, “VIRAL VECTOR TRANSDUCTION” (Oxford University Innovation Limited, priority 2018, published 2021).

Legend:
[1] = mefloquine enantiomers; cited from earlier work
[2] = test system: Wildtype (WT) mouse embryonic fibroblasts (MEFs); experiment: HCQ effect on AAV (rAAV2.CAG.GFP.WPRE.pA) transduction in MEFs, flow cytometry GFP / 7-AAD; assay type: cell-based
Method: Cell culture. Wildtype (WT) mouse embryonic fibroblasts (MEFs) were seeded into 6-well plates. 24 hr after seeding the cells were incubated in culture media with HCQ concentrations of 3.125-50 uM for 1 hr prior to transduction with a rAAV2.CAG.GFP.WPRE.pA vector at a MOI of 1000. The cells were cultured in HCQ containing media until harvesting. Cells were imaged 3 days post-transduction (FIG. 1A).
Flow cytometry analysis. Cells were processed 3 days post-transduction and stained with the cell viability dye 7-AAD for 5 minutes prior to flow cytometry analysis. Fluorescent light was measured by a BD LSRFortessa flow cytometer using a blue laser with the bandpass filters 695 nm/[…] and 530 nm/[…] to detect the fluorochromes of 7-AAD and GFP, respectively (FIG. 1a).

Primary NHP RPE cells [3] = experiment: HCQ effect on AAV transduction in primary NHP RPE cells, GFP qPCR; assay type: cell-based, Rhesus macaque (M. mullata); conditions: 18.75 μM HCQ, 3 days post-transduction, normalized to β-actin, N=3, p=0.0253
Method: (§1) Harvesting non-human primate (NHP) retinal pigment epithelium (RPE) cells. After enucleation, the cornea and lens were removed under direct visualization with a surgical microscope. Radial incisions were made towards the posterior pole to flatten the eyecup. The retina was removed by blunt dissection and the remaining eyecup was placed in media and stored on ice until the RPE cells were removed. RPE cells were detached using the TrypLE cell dissociation reagent and were cultured at 37° C.
(§2) Cell culture. Primary NHP RPE cells were seeded into a 12-well plate. 24 hr after seeding, the cells were incubated in media with 3.125 uM or 18.75 uM of HCQ for 1 hr prior to transduction with 2×10^9 genome copies per well. Cells were imaged 3 days post-transduction.
RNA & protein extraction and cDNA synthesis. The primary NHP RPE were harvested for RNA extraction 3-days post-AAV transduction with HCQ. Total RNA was extracted using the RNeasy Mini Kit (Qiagen) according to the manufacturer's instructions. Copy DNA was synthesised using 850-1500 ng of RNA using the Superscript III Kit (Invitrogen) with an oligo dT primer.
qPCR analysis. qPCR was carried out using TaqMan probes against GFP and β-actin in a CFX Connect thermal cycler (BioRad). GFP expression was normalized to β-actin and represented as a fold change to transduced cells incubated without HCQ.

Primary NHP RPE cells [4] = experiment: HCQ effect on AAV transduction in primary NHP RPE cells, GFP protein western blot; assay type: cell-based, Rhesus macaque (M. mullata); conditions: 18.75 μM HCQ
Method: as §1, §2
Protein extraction. The flow through from RNA extraction above was combined with 4 volumes of acetone and incubated on ice for 30 min. Samples were centrifuged at 17,000×g for 30 min, the supernatant was discarded and the pellet washed in 100 μL of ice-cold ethanol. Pellets were resuspended in 1% SDS.
Western blot. Total protein content in cell lysates was determined using the bicinchoninic acid method. GFP and actin proteins were probed using monoclonal antibodies, and detected using ECL and Odyssey Imaging System (LI-COR). Data analysis was performed using ImageStudio Lite software (LI-COR). GFP band density was normalised to β-actin.

human retinal explants = experiment: HCQ effect on AAV transduction in human retinal explants, mean grey value (GFP fluorescence); assay type: cell-based; conditions: 3.125 uM HCQ, 1×10^9 genome copies rAAV2.CAG.GFP.WPRE.pA, imaged every 2 days for 11 days, n=6, p=0.0213
Method: Harvesting tissue. Human retina fragments was extracted during routine retinal surgery in which a retinectomy was required (ethics approved). Fragments of retina were removed via a 23G sclerostomy with vitrectomy cutter (at minimal cut rate) and manual aspiration.
Culturing explants. Within 1 hr of tissue collection, retinal fragments were transferred using a 3 mL Pasteur pipette into individual organotypic culture inserts (BD Falcon), which were in turn placed within a 24-well plate. 400 uL of media was placed beneath the insert and 100 uL of media within the insert. 24 hr after culturing the retinal explants, the media was replaced with media containing 3.125 uM or 18.75 uM of HCQ. The explants were incubated in the HCQ medium for 1 hour prior to transduction with 1×10^9 genome copies of rAAV2.CAG.GFP.WPRE.pA vector. The explants were imaged every 2 days for 11 days and the mean grey value (representative of GFP fluorescence) of the explants was measured using ImageJ software (FIG. 3a).

retina of C57BL/6 mice [5] = experiment: Subretinal co-injection of AAV GFP vector and HCQ in mice, cSLO fundus autofluorescence; assay type: in vivo, mouse; conditions: AAV 1×10^8 genome copies with 18.75 uM HCQ, 4 and 8 weeks post-injection
Method: (§3) Subretinal injections. 7 week old female C57BL/6 mice were subretinally injected with 1.2 μL vector suspension (1×10^8 genome copies). The vector was prepared with a 3.125 uM or 18.75 uM final concentration of HCQ with control preparations without any HCQ. Animals were injected with an AAV+HCQ preparation in one eye and AAV only in the paired eye.
Confocal scanning laser ophthalmoscope (cSLO) analysis. Standardized mouse autofluorescence (AF) imaging using a cSLO (Spectralis HRA, Heidelberg Engineering) was performed in all animals according to previously published protocol. All images were recorded using the 55° lens of the Spectralis HRA at 2, 4 and 8 weeks post-injection. Images were recorded using a standardized signal detector sensitivity. For quantitative analysis of fundus AF, the mean grey level was measured within a ring-shaped area located at radii between 350 and 860 pixels from the optic disc centre using ImageJ software (NIH).

retina of C57BL/6 mice [6] = experiment: Subretinal co-injection of AAV GFP vector and HCQ in mice, OCT retinal thickness; assay type: in vivo, mouse; conditions: subretinal injection suspension with 3.125 uM or 18.75 uM HCQ, OCT at 2, 4 and 8 weeks
Method: as §3
OCT analysis. Animals were subject to wide-field spectral-domain optical coherence tomography (OCT, Spectralis HRA, Heidelberg Engineering) at 2, 4 and 8 weeks post-injection. Mice were scanned using a 55° lens and 8 radial sections were taken with a real-time average process of 25 frames. The total retinal thickness and the outer limiting membrane (OLM) thickness were manually measured on alternate radial sections using a calliper.

Mouse retinas = experiment: Subretinal co-injection of AAV GFP vector and HCQ in mice, GFP western blot of retinas; assay type: in vivo; conditions: 18.75 μM HCQ
Method: as §3
Protein extraction. Mouse retinas were thawed on ice and lysed in 1× RIPA buffer+protease inhibitors. The retinas were homogenised using a hand-held homogeniser and incubated on ice for 30 mins. The samples were centrifuged at 17,000×g at 4° C. for 20 mins. The supernatant was transferred to a new tube and kept on ice.
Western blot (WB). Total protein content in cell lysates was determined using the bicinchoninic acid method. GFP and actin proteins were probed using monoclonal antibodies, and detected using ECL and Odyssey Imaging System (LI-COR). Data analysis was performed using ImageStudio Lite software (LI-COR). GFP band density was normalised to actin.

O[C@H](c1cc(C(F)(F)F)nc2c(C(F)(F)F)cccc12)[C@@H]1CCCCN1 (single isomer, unassigned) [(+)-enantiomer]
half-life compared with the other enantiomer [1]: shorter

CCN(CCO)CCCC(C)Nc1ccnc2cc(Cl)ccc12 (stereo not shown) [HCQ, 2-[{4-[(7-chloroquinolin-4-yl)amino]pentyl}(ethyl)amino]ethanol]
HCQ concentration that induces cell death ([2]; 7-AAD viability dye, 3 days post-transduction): ≥ 25 µM
number of GFP expressing cells ([2]; HCQ 3.125-50 uM from 1 hr before transduction, rAAV2.CAG.GFP.WPRE.pA MOI 1000, 3 days post-transduction): increase the number of GFP expressing cells up to 18.75 uM
GFP mRNA expression, fold change to transduced cells incubated without HCQ (Primary NHP RPE cells [3]): 3 fold
GFP protein expression increase compared to transduced cells incubated without HCQ (Primary NHP RPE cells [4]; 3 days post-transduction (FIGS. 2a and 2b)): 19 fold
GFP protein expression improvement by western blot (Primary NHP RPE cells [4]; N=2, GFP band density normalised to β-actin (FIG. 2c)): approximately 4 fold
increase in mean grey value (representative of GFP fluorescence) compared to no HCQ (human retinal explants): up to 2 fold
increase in mean grey value of fundus AF images (surrogate measure of GFP expression) compared to control eyes injected with AAV only (retina of C57BL/6 mice [5]): 2 fold
mean retinal thickness or retinal morphology, groups with and without HCQ (retina of C57BL/6 mice [6]): no significant difference
GFP signal detected by WB compared to the 0 μM HCQ paired eye (Mouse retinas): increase in the GFP signal
